Data set [1] has as its system COLO205 cell line (Colon cancer). Put plainly: Cell viability assay (CellTiter-Glo), COLO205. As to conditions: Homo sapiens, COLO 205; COLO205, 72 hours; read-out: IC50 Cell-based assay (COLO205). How it is done:
(§1) The CellTiter-Glo® assay was purchased from Promega. All the reagents and plates for cell culture were purchased Invitrogen Life Technology and Nunc, respectively.
(§2) To investigate whether a compound is able to inhibit the activity of MEK in cells, a mechanism-based assay using COLO205 cell line (Colon cancer) and M14 cell line (Melanoma) were developed. COLO205 cells and M14 cells were cultured in a tissue culture flask to 80% confluence in RPMI1640 plus 10% fetal bovine serum. Cells were collected and plated onto 96 well culture plates at 2×10^2 cells/well. Plates were incubated overnight at 37° C. in a 5% CO2 incubator to allow cells to adhere. Various concentrations of MEK inhibitors were added to the plates and incubated at 37° C. for 72 hours. After 72 hours, 20 μl of CellTiter-Glo® reagent was added to each well. Mix by orbital shaking for 2 min, then incubates at room temperature for 15 min. Cell lysate were transferred into a 96 well white plate (Thermo). Plates were read out by EnVision Multilabel Plate Reader. The data were analyzed using GraphPad Prism5.

The target of another data set is Mek1 (Homo sapiens (Human), UniProt Q02750). Put plainly: Mek1 kinase assay (LANCE). It is filed as biochemical. To be noted: Mek1 0.5 nM, 50 μM ATP, 90 min at 23° C.; read-out: IC50 Enzymatic assay. The source says:
The LANCE Ultra assay kit was purchased from PerkinElmer. The ULight™-MBP peptide, Europium labeled Antibody and LANCE Detection buffer were purchased from PerkinElmer. The APT and dimethylsulfoxide were purchased from Sigma-Aldrich. The 5× Kinase buffer were purchased from Invitrogen.
A Mek1 kinase assay (LANCE, PerkinElmer) was developed for supporting compound profiling and lead optimization. […] Then the phosphorylated Erk1 was able to phosphorylate ULight™-MBP peptide (PerkinElmer). The phosphorylated peptide was detected by Europium-anti-phospho-MBP (PerkinElmer). […] After quenching the reaction with […], 2 nM Europium-anti-phospho-MBP was added to the reaction mixture and incubated for 60 min, followed by a detection using EnVision Multilabel Plate Reader (PerkinElmer). The IC50 values were derived through a curve fitting using GraphPad Prism5.

Another data set concerns M14 cell line (Melanoma). Briefly: Cell viability assay (CellTiter-Glo), M14. As to conditions: Homo sapiens; M14, 72 hours; read-out: IC50 Cell-based assay (M14). How it is done: as §1, §2
Data set [2] is described as follows: Example 3 toxicity study by oral administration for 8 days. It is filed as in vivo, Sprague-Dawley rats. As to conditions: for Body weight: escalating 5-320 mg/kg over 8 days. As for the experimental part: To evaluate the potential toxicity, test article, Example 3, was administered orally for 8 days to Sprague-Dawley rats.
Male and female Sprague-Dawley rats, 6 weeks of age at onset of the study, were assigned to 2 experimental groups as follow: (1) 2 male rats treated 5, 5, 10, 20, 40, 80, 160, 320 mg/kg each day with doses escalating for 8 days (2) 2 female rats treated 5, 5, 10, 20, 40, 80, 160, 320 mg/kg each day with doses escalating for 8 days. Each article was in vehicle (Captisol).
Body weight was measured on a daily basis to determine toxicity. All groups were sacrificed at 9th day.

Each structure is given as a SMILES string. A value given as a limit tells only on which side of the number the result lay.

Chain of Mek1 (Q02750 whole entry, species assumed): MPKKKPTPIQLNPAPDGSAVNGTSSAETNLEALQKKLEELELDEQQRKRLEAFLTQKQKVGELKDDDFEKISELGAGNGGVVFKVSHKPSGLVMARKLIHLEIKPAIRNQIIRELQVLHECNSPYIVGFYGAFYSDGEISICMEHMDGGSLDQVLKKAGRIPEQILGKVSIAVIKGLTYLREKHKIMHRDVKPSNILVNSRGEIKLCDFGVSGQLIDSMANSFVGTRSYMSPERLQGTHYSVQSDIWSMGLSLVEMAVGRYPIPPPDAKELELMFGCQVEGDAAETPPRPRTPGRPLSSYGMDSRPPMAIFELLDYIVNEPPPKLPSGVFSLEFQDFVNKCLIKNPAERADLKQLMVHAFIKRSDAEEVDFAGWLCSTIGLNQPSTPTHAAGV

For `Cn1c(Nc2ccc(I)cc2F)c(C(N)=O)c2c(c1=O)CCC2` [Example 4, 3-(2-fluoro-4-iodophenylamino)-2-methyl-1-oxo-2,5,6,7-tetrahydro-1H-cyclopenta[c]pyridine-4-carboxamide], the IC50 in data set [1] was less than 50 nM; at Mek1, less than 5000 nM; in the data set with M14 cell line (Melanoma) it was less than 500 nM.
For `Cn1c(Nc2ccc(I)cc2F)c(C(=O)NOCCO)c2ncccc2c1=O` [Example 1, 7-(2-fluoro-4-iodophenylamino)-N-(2-hydroxyethoxy)-6-methyl-5-oxo-5,6-dihydro-1,6-naphthyridine-8-carboxamide], the half-maximal inhibitory concentration (IC50) in data set [1] is less than 500 nM; on Mek1 it was less than 1000 nM; in the data set with M14 cell line (Melanoma), less than 500 nM.
Take `Cn1c(Nc2ccc(I)cc2F)c(C(=O)NOCCO)c2c(c1=O)CC(C)(C)C2` [Example 10, 3-(2-fluoro-4-iodophenylamino)-N-(2-hydroxyethoxy)-2,6,6-trimethyl-1-oxo-2,5,6,7-tetrahydro-1H-cyclopenta[c]pyridine-4-carboxamide]: the IC50 in data set [1] is less than 50 nM; in the data set with M14 cell line (Melanoma), less than 100 nM.
For the compound `Cn1c(Nc2ccc(I)cc2F)c(C(=O)NOCC(O)CO)c2c(c1=O)CCC2` (centres unmarked) [Example 8, N-(2,3-dihydroxypropoxy)-3-(2-fluoro-4-iodophenylamino)-2-methyl-1-oxo-2,5,6,7-tetrahydro-1H-cyclopenta[c]pyridine-4-carboxamide], the results for the IC50 (in data set [1]; at Mek1; in the data set on M14 cell line (Melanoma)) were less than 5 nM, less than 500 nM and less than 50 nM, respectively.
In the same order, the values of `Cn1c(Nc2ccc(I)cc2Cl)c(C(=O)NOCCO)c2c(c1=O)CCC2` [Example 11, 3-(2-chloro-4-iodophenylamino)-N-(2-hydroxyethoxy)-2-methyl-1-oxo-2,5,6,7-tetra hydro-1H-cyclopenta[c]pyridine-4-carboxamide] are less than 5 nM, less than 500 nM and less than 50 nM.
In the same order, the values of `C[C@@H](O)CONC(=O)c1c2c(c(=O)n(C)c1Nc1ccc(I)cc1F)CCC2` [Example 6, (R)-3-(2-fluoro-4-iodophenylamino)-N-(2-hydroxypropoxy)-2-methyl-1-oxo-2,5,6,7-tetrahydro-1H-cyclopenta[c]pyridine-4-carboxamide] are less than 10 nM, less than 1000 nM and less than 100 nM.
As for `Cn1c(Nc2ccc(I)cc2F)c(-c2nnc(N)o2)c2c(c1=O)CCC2` [Example 9, 4-(5-amino-1,3,4-oxadiazol-2-yl)-3-(2-fluoro-4-iodophenylamino)-2-methyl-2,5,6,7-tetrahydro-1H-cyclopenta[c]pyridin-1-one], the IC50 in data set [1] was less than 50 nM; at Mek1 it was less than 5000 nM; with M14 cell line (Melanoma), less than 1000 nM.
For `Cn1c(Nc2ccc(I)cc2F)c(C(=O)NOCCO)c2c(c1=O)CCC2` [Example 3, 3-(2-fluoro-4-iodophenylamino)-N-(2-hydroxyethoxy)-2-methyl-1-oxo-2,5,6,7-tetrahydro-1H-cyclopenta[c]pyridine-4-carboxamide], the half-maximal inhibitory concentration (IC50) was less than 5 nM in data set [1], less than 500 nM on Mek1 and less than 10 nM in the data set on M14 cell line (Melanoma). Further, the Body weight entry is “decreased after 6 days” in data set [2] (female rats); “decreased at day 6 and day 8” in data set [2] (male rats). The Mortality result in data set [2] (male and female rats, escalating 5, 5, 10, 20, 40, 80, 160, 320 mg/kg over 8 days) was “No mortality was observed”.
As for `Cn1c(Nc2ccc(I)cc2F)c(C(=O)NOCC(C)(C)O)c2c(c1=O)CCC2` [Example 7, 3-(2-fluoro-4-iodophenylamino)-N-(2-hydroxy-2-methylpropoxy)-2-methyl-1-oxo-2,5,6,7-tetrahydro-1H-cyclopenta[c]pyridine-4-carboxamide], the figures for the IC50 (in data set [1]; on Mek1; with M14 cell line (Melanoma)) were less than 5 nM, less than 5000 nM and less than 500 nM, respectively.
In the same order, the values of `C[C@H](O)CONC(=O)c1c2c(c(=O)n(C)c1Nc1ccc(I)cc1F)CCC2` [Example 5, (S)-3-(2-fluoro-4-iodophenylamino)-N-(2-hydroxypropoxy)-2-methyl-1-oxo-2,5,6,7-tetrahydro-1H-cyclopenta[c]pyridine-4-carboxamide] are less than 5 nM, less than 500 nM and less than 50 nM.
Taken in the same sequence, the figures for `Cn1c(Nc2ccc(I)cc2F)c(-c2nnc(N)o2)c2ncccc2c1=O` [Example 2, 8-(5-amino-1,3,4-oxadiazol-2-yl)-7-(2-fluoro-4-iodophenylamino)-6-methyl-1,6-naphthyridin-5(6H)-one] were less than 50000 nM, less than 10000 nM and less than 50000 nM.
